The values that follow come from ChEMBL document CHEMBL2380212, “Synthesis, single crystal and antitumor activities of benzimidazole-quinazoline hybrids” (Bioorg Med Chem Lett, 2013).

Holding throughout (format): functional
One experiment concerns UACC-257. The experiment in a line: Cytotoxicity against human UACC257 cells at 10 uM after 48 hrs by SRB assay. To be noted: UACC-257, 48 h, read-out: GI.
The test system of the next experiment is TK-10. The experiment can be described thus: Cytotoxicity against human TK10 cells at 10 uM after 48 hrs by SRB assay. To be noted: TK-10, 48 h, read-out: GI.
In the next experiment the test system is MDA-MB-435. The experiment can be described thus: Cytotoxicity against human MDA-MB-435 cells at 10 uM after 48 hrs by SRB assay. Particulars: MDA-MB-435, 48 h, read-out: GI.
A further experiment deals with SK-MEL-5. The experiment in a line: Cytotoxicity against human SK-MEL-5 cells at 10 uM after 48 hrs by SRB assay. Particulars: SK-MEL-5, 48 h, read-out: GI.
The subject of another experiment is HOP-62. The experiment can be described thus: Cytotoxicity against human HOP62 cells at 10 uM after 48 hrs by SRB assay. Particulars: HOP-62, 48 h, read-out: GI.
The test system of the next experiment is A498. The experiment can be described thus: Cytotoxicity against human A498 cells at 10 uM after 48 hrs by SRB assay. Particulars: A498, 48 h, read-out: GI.
The subject of the next experiment is MCF7. The experiment can be described thus: Cytotoxicity against human MCF7 cells at 10 uM after 48 hrs by SRB assay. To be noted: MCF7, 48 h, read-out: GI.
The subject of another experiment is HCC 2998. The experiment can be described thus: Cytotoxicity against human HCC2998 cells at 10 uM after 48 hrs by SRB assay. To be noted: HCC 2998, 48 h, read-out: GI.
The subject of another experiment is NCI/ADR-RES. The experiment can be described thus: Cytotoxicity against human NCI/ADR-RES cells at 10 uM after 48 hrs by SRB assay. Particulars: read-out: GI.
A further experiment relates to CAKI-1. The experiment in a line: Cytotoxicity against human Caki1 cells at 10 uM after 48 hrs by SRB assay. Particulars: CAKI-1, 48 h, read-out: GI.
The next experiment concerns SF-295. The experiment in a line: Cytotoxicity against human SF295 cells at 10 uM after 48 hrs by SRB assay. To be noted: SF-295, 48 h, read-out: GI.
Another experiment has as its system SNB-75. The experiment in a line: Cytotoxicity against human SNB75 cells at 10 uM after 48 hrs by SRB assay. To be noted: SNB-75, 48 h, read-out: GI.
A further experiment concerns SW-620. The experiment in a line: Cytotoxicity against human SW620 cells at 10 uM after 48 hrs by SRB assay. Particulars: SW-620, 48 h, read-out: GI.
For a further experiment, the system named is BT-549. The experiment in a line: Cytotoxicity against human BT549 cells at 10 uM after 48 hrs by SRB assay. To be noted: BT-549, 48 h, read-out: GI.
The test system of another experiment is Malme-3M. The experiment can be described thus: Cytotoxicity against human MALME-3M cells at 10 uM after 48 hrs by SRB assay. To be noted: read-out: GI.
The subject of the next experiment is SK-MEL-28. The experiment in a line: Cytotoxicity against human SK-MEL-28 cells at 10 uM after 48 hrs by SRB assay. Particulars: SK-MEL-28, 48 h, read-out: GI.
Another experiment has as its system Hs-578T. The experiment can be described thus: Cytotoxicity against human Hs578T cells at 10 uM after 48 hrs by SRB assay. To be noted: read-out: GI.
Experiment [1] in a line: Cytotoxicity against human EKVX cells at 10 uM after 48 hrs by SRB assay. To be noted: read-out: GI.
The test system of a further experiment is CCRF-CEM. The experiment in a line: Cytotoxicity against human CCRF-CEM cells at 10 uM after 48 hrs by SRB assay. To be noted: read-out: GI.

For `C=CCn1c(C)nc2ccc(Nc3nc(Cl)nc4ccccc34)cc21`, the inhibition of growth at 10 µM is below 10% in the experiment on UACC-257; below 10% in the experiment with TK-10; below 10% in the experiment with MDA-MB-435; below 10% with SK-MEL-5; below 10% in the experiment with HOP-62; 44.5% with A498. For the same molecule, the inhibition of growth at 10 µM with MCF7 is below 10%; in the experiment with HCC 2998 it was below 10%; in the experiment on NCI/ADR-RES, below 10%; in the experiment with CAKI-1, 12.8%; in the experiment on SF-295, 15.2%; with SNB-75, below 10%. Further, the inhibition of growth at 10 µM (in the experiment on SW-620; in the experiment with BT-549; in the experiment on Malme-3M; in the experiment on SK-MEL-28; in the experiment on Hs-578T; in experiment [1]) was below 10% each time.

With `C=CCn1c(C)nc2cc(Nc3nc(Cl)nc4ccccc34)ccc21`, the inhibition of growth at 10 µM in the experiment with UACC-257 is below 10%; in the experiment with TK-10, below 10%; in the experiment with MDA-MB-435 it was below 10%; in the experiment on SK-MEL-5 it was below 10%; in the experiment with HOP-62 it was below 10%; with A498 it was 31.5%. Moreover, the inhibition of growth at 10 µM in the experiment with MCF7 was below 10%; in the experiment on HCC 2998 it was below 10%; with NCI/ADR-RES it was 10.5%; in the experiment with CAKI-1, 16.9%; in the experiment with SF-295, 10.3%; with SNB-75, below 10%. Besides, the inhibition of growth at 10 µM is below 10% with SW-620; below 10% with BT-549; below 10% with SK-MEL-28; below 10% in the experiment on Hs-578T; 17.2% in [1].

As for `C=CCn1c(C)nc2ccc(Nc3nc(N4CCOCC4)nc4ccccc34)cc21`, the inhibition of growth at 10 µM was below 10% in the experiment on UACC-257; below 10% in the experiment with TK-10; below 10% with MDA-MB-435; below 10% in the experiment on SK-MEL-5; below 10% in the experiment with HOP-62; 41.2% in the experiment with A498. Also, the inhibition of growth at 10 µM was below 10% in the experiment with MCF7; below 10% with HCC 2998; 23.6% with NCI/ADR-RES; 11.5% in the experiment on CAKI-1; below 10% with SF-295; 12.6% in the experiment on SNB-75. The inhibition of growth at 10 µM (in the experiment with SW-620; in the experiment on BT-549; in the experiment with Malme-3M; in the experiment on SK-MEL-28; in the experiment with Hs-578T; in [1]) was below 10% each time.

Turning to `C=CCn1c(C)nc2ccc(Nc3nc(N4CCCC4)nc4ccccc34)cc21`, the inhibition of growth at 10 µM in the experiment with UACC-257 was below 10%; with TK-10 it was below 10%; with MDA-MB-435 it was below 10%; in the experiment on SK-MEL-5, 37.6%; in the experiment on HOP-62, below 10%; in the experiment on A498, 28.5%. In addition, the inhibition of growth at 10 µM in the experiment with MCF7 worked out at 38.1%; with HCC 2998, 76.6%; with NCI/ADR-RES, 16.7%; in the experiment on CAKI-1, 15%; in the experiment with SF-295 it was 16.3%; with SNB-75, 16.3%. Further, the inhibition of growth at 10 µM in the experiment with SW-620 was 24.9%; with BT-549 it was 13.1%; in the experiment on Malme-3M it was below 10%; with SK-MEL-28, 19.8%; in the experiment with Hs-578T it was 13.1%; in [1] it was below 10%.

As for `C=CCn1c(C)nc2ccc(Nc3nc(N4CCN(C)CC4)nc4ccccc34)cc21`, the inhibition of growth at 10 µM in the experiment on CCRF-CEM was 31.5%; in the experiment on UACC-257 it was below 10%; with TK-10, below 10%; with MDA-MB-435 it was below 10%; with SK-MEL-5, 18.3%; with HOP-62, 11.3%. Also, the inhibition of growth at 10 µM in the experiment on A498 is below 10%; in the experiment on MCF7 it was 14.4%; in the experiment with HCC 2998, below 10%; with NCI/ADR-RES it was below 10%; in the experiment with CAKI-1, 14.4%; in the experiment on SF-295, below 10%. Moreover, the inhibition of growth at 10 µM in the experiment on SNB-75 is 17.6%; with SW-620, below 10%; with BT-549, 20.7%; in the experiment with Malme-3M, below 10%; with SK-MEL-28 it was below 10%; in the experiment on Hs-578T, 23.3%.

As for `C=CCn1c(C)nc2cc(Nc3nc(N4CCOCC4)nc4ccccc34)ccc21`, the inhibition of growth at 10 µM in the experiment with UACC-257 was below 10%; with TK-10, below 10%; in the experiment on MDA-MB-435, below 10%; in the experiment with SK-MEL-5, below 10%; in the experiment with HOP-62, below 10%; with A498 it was 20.7%. Further, the inhibition of growth at 10 µM with MCF7, with HCC 2998, in the experiment with NCI/ADR-RES, with CAKI-1, in the experiment on SF-295 and in the experiment with SNB-75 was below 10% each time. Further, the inhibition of growth at 10 µM (in the experiment with SW-620; in the experiment on BT-549; in the experiment with SK-MEL-28; with Hs-578T; in experiment [1]) was below 10% each time.

For `C=CCn1c(C)nc2cc(Nc3nc(N4CCCC4)nc4ccccc34)ccc21`, the inhibition of growth at 10 µM was below 10% with UACC-257; below 10% in the experiment with TK-10; below 10% in the experiment on MDA-MB-435; below 10% with SK-MEL-5; below 10% in the experiment with HOP-62; 27.6% in the experiment with A498. Moreover, the inhibition of growth at 10 µM is below 10% with MCF7; below 10% in the experiment with HCC 2998; below 10% in the experiment with NCI/ADR-RES; 10.2% in the experiment on CAKI-1; below 10% with SF-295; below 10% with SNB-75. Further, the inhibition of growth at 10 µM (in the experiment on SW-620; with BT-549; with Malme-3M; in the experiment with SK-MEL-28; in the experiment on Hs-578T; in experiment [1]) was below 10% in each case.
